# ChEMBL document CHEMBL2331514, “Structure-based design and synthesis of novel pseudosaccharine derivatives as antiproliferative agents and kinase inhibitors” (Eur J Med Chem, 2013)
# Key:
# Assay type in all cases: functional
# SK-MEL-5 = test: Cytotoxicity against human SK-MEL-5 cells assessed as growth inhibition at 10 uM after 48 hrs by SRB assay; conditions: SK-MEL-5, 48 h, read-out: GI
# LOX IMVI = test: Cytotoxicity against human LOXIMVI cells assessed as growth inhibition at 10 uM after 48 hrs by SRB assay; conditions: read-out: GI
# TK-10 = test: Cytotoxicity against human TK10 cells assessed as growth inhibition at 10 uM after 48 hrs by SRB assay; conditions: TK-10, 48 h, read-out: GI
# COLO 205 = test: Cytotoxicity against human COLO205 cells assessed as growth inhibition at 10 uM after 48 hrs by SRB assay; conditions: COLO 205, 48 h, read-out: GI
# HL-60(TB) = test: Cytotoxicity against human HL-60(TB) cells assessed as growth inhibition at 10 uM after 48 hrs by SRB assay; conditions: HL-60, 48 h, read-out: GI
# RPMI-8226 = test: Cytotoxicity against human RPMI8226 cells assessed as growth inhibition at 10 uM after 48 hrs by SRB assay; conditions: RPMI-8226, 48 h, read-out: GI
# HOP-62 = test: Cytotoxicity against human HOP62 cells assessed as growth inhibition at 10 uM after 48 hrs by SRB assay; conditions: HOP-62, 48 h, read-out: GI
# UACC-257 = test: Cytotoxicity against human UACC257 cells assessed as growth inhibition at 10 uM after 48 hrs by SRB assay; conditions: UACC-257, 48 h, read-out: GI
# PC-3 = test: Cytotoxicity against human PC3 cells assessed as growth inhibition at 10 uM after 48 hrs by SRB assay; conditions: PC-3, 48 h, read-out: GI
# M14 = test: Cytotoxicity against human M14 cells assessed as growth inhibition at 10 uM after 48 hrs by SRB assay; conditions: M14, 48 h, read-out: GI
# HCT-15 = test: Cytotoxicity against human HCT15 cells assessed as growth inhibition at 10 uM after 48 hrs by SRB assay; conditions: HCT-15, 48 h, read-out: GI
# SK-MEL-2 = test: Cytotoxicity against human SK-MEL-2 cells assessed as growth inhibition at 10 uM after 48 hrs by SRB assay; conditions: SK-MEL-2, 48 h, read-out: GI
# [1] = Cytotoxicity against human NCI-ADR-RES cells assessed as growth inhibition at 10 uM after 48 hrs by SRB assay; conditions: read-out: GI
# Malme-3M = test: Cytotoxicity against human MALME-3M cells assessed as growth inhibition at 10 uM after 48 hrs by SRB assay; conditions: read-out: GI
# HOP-92 = test: Cytotoxicity against human HOP92 cells assessed as growth inhibition at 10 uM after 48 hrs by SRB assay; conditions: HOP-92, 48 h, read-out: GI
# SF-268 = test: Cytotoxicity against human SF268 cells assessed as growth inhibition at 10 uM after 48 hrs by SRB assay; conditions: SF-268, 48 h, read-out: GI
# HCT-116 = test: Cytotoxicity against human HCT116 cells assessed as growth inhibition at 10 uM after 48 hrs by SRB assay; conditions: HCT-116, 48 h, read-out: GI
# A498 = test: Cytotoxicity against human A498 cells assessed as growth inhibition at 10 uM after 48 hrs by SRB assay; conditions: A498, 48 h, read-out: GI
# SN12C = test: Cytotoxicity against human SN12C cells assessed as growth inhibition at 10 uM after 48 hrs by SRB assay; conditions: read-out: GI
# SNB-19 = test: Cytotoxicity against human SNB19 cells assessed as growth inhibition at 10 uM after 48 hrs by SRB assay; conditions: SNB-19, 48 h, read-out: GI
# KM12 = test: Cytotoxicity against human KM12 cells assessed as growth inhibition at 10 uM after 48 hrs by SRB assay; conditions: KM12, 48 h, read-out: GI
# UACC-62 = test: Cytotoxicity against human UACC62 cells assessed as growth inhibition at 10 uM after 48 hrs by SRB assay; conditions: UACC-62, 48 h, read-out: GI
# NCI-H460 = test: Cytotoxicity against human NCI-H460 cells assessed as growth inhibition at 10 uM after 48 hrs by SRB assay; conditions: NCI-H460, 48 h, read-out: GI
# SF-295 = test: Cytotoxicity against human SF295 cells assessed as growth inhibition at 10 uM after 48 hrs by SRB assay; conditions: SF-295, 48 h, read-out: GI
# SW-620 = test: Cytotoxicity against human SW620 cells assessed as growth inhibition at 10 uM after 48 hrs by SRB assay; conditions: SW-620, 48 h, read-out: GI
# ACHN = test: Cytotoxicity against human ACHN cells assessed as growth inhibition at 10 uM after 48 hrs by SRB assay; conditions: read-out: GI
# SNB-75 = test: Cytotoxicity against human SNB75 cells assessed as growth inhibition at 10 uM after 48 hrs by SRB assay; conditions: SNB-75, 48 h, read-out: GI
# NCI-H322M = test: Cytotoxicity against human NCI-H322M cells assessed as growth inhibition at 10 uM after 48 hrs by SRB assay; conditions: read-out: GI
# SR = test: Cytotoxicity against human SR cells assessed as growth inhibition at 10 uM after 48 hrs by SRB assay; conditions: read-out: GI
# NCI-H522 = test: Cytotoxicity against human NCI-H522 cells assessed as growth inhibition at 10 uM after 48 hrs by SRB assay; conditions: NCI-H522, 48 h, read-out: GI
# MDA-MB-231 = test: Cytotoxicity against human MDA-MB-231 cells assessed as growth inhibition at 10 uM after 48 hrs by SRB assay; conditions: MDA-MB-231, 48 h, read-out: GI
# MDA-MB-435 = test: Cytotoxicity against human MDA-MB-435 cells assessed as growth inhibition at 10 uM after 48 hrs by SRB assay; conditions: MDA-MB-435, 48 h, read-out: GI
# T47D = test: Cytotoxicity against human T47D cells assessed as growth inhibition at 10 uM after 48 hrs by SRB assay; conditions: read-out: GI
# Hs-578T = test: Cytotoxicity against human Hs578T cells assessed as growth inhibition at 10 uM after 48 hrs by SRB assay; conditions: read-out: GI
# U-251 = test: Cytotoxicity against human U251 cells assessed as growth inhibition at 10 uM after 48 hrs by SRB assay; conditions: U-251, 48 h, read-out: GI
# SK-MEL-28 = test: Cytotoxicity against human SK-MEL-28 cells assessed as growth inhibition at 10 uM after 48 hrs by SRB assay; conditions: SK-MEL-28, 48 h, read-out: GI
# DU-145 = test: Cytotoxicity against human DU145 cells assessed as growth inhibition at 10 uM after 48 hrs by SRB assay; conditions: DU-145, 48 h, read-out: GI
# NCI-H23 = test: Cytotoxicity against human NCI-H23 cells assessed as growth inhibition at 10 uM after 48 hrs by SRB assay; conditions: NCI-H23, 48 h, read-out: GI
SMILES,inhibition of growth at 10 µM (SK-MEL-5),inhibition of growth at 10 µM (LOX IMVI),inhibition of growth at 10 µM (TK-10),inhibition of growth at 10 µM (COLO 205),inhibition of growth at 10 µM (HL-60(TB)),inhibition of growth at 10 µM (RPMI-8226),inhibition of growth at 10 µM (HOP-62),inhibition of growth at 10 µM (UACC-257),inhibition of growth at 10 µM (PC-3),inhibition of growth at 10 µM (M14),inhibition of growth at 10 µM (HCT-15),inhibition of growth at 10 µM (SK-MEL-2),inhibition of growth at 10 µM [1],inhibition of growth at 10 µM (Malme-3M),inhibition of growth at 10 µM (HOP-92),inhibition of growth at 10 µM (SF-268),inhibition of growth at 10 µM (HCT-116),inhibition of growth at 10 µM (A498),inhibition of growth at 10 µM (SN12C),inhibition of growth at 10 µM (SNB-19),further results
COc1ccc(NC(=O)Nc2ccc(NC3=NS(=O)(=O)c4ccccc43)cc2)cc1,14%,1%,-4%,-36%,10%,4%,-12%,-19%,-5%,-8%,3%,-4%,-6%,6%,-13%,-1%,5%,17%,5%,-6%,inhibition of growth at 10 µM (KM12): -1%; inhibition of growth at 10 µM (UACC-62): -3%; inhibition of growth at 10 µM (NCI-H460): 1%; inhibition of growth at 10 µM (SF-295): 18%; inhibition of growth at 10 µM (SW-620): -6%; inhibition of growth at 10 µM (ACHN): -3%; inhibition of growth at 10 µM (SNB-75): 1%; inhibition of growth at 10 µM (NCI-H322M): 0%; inhibition of growth at 10 µM (SR): 11%; inhibition of growth at 10 µM (NCI-H522): 0%; inhibition of growth at 10 µM (MDA-MB-231): -13%; inhibition of growth at 10 µM (MDA-MB-435): 6%; inhibition of growth at 10 µM (T47D): 5%; inhibition of growth at 10 µM (Hs-578T): -4%; inhibition of growth at 10 µM (U-251): 14%; inhibition of growth at 10 µM (SK-MEL-28): -4%; inhibition of growth at 10 µM (DU-145): 3%; inhibition of growth at 10 µM (NCI-H23): 8%
O=C(Nc1ccc(Cl)cc1)Nc1ccc2c(c1)C(Nc1ccc(Cl)cc1Cl)=NS2(=O)=O,51%,72%,57%,77%,74%,98%,33%,38%,82%,63%,76%,50%,79%,58%,82%,40%,91%,68%,67%,64%,inhibition of growth at 10 µM (KM12): 80%; inhibition of growth at 10 µM (UACC-62): 71%; inhibition of growth at 10 µM (NCI-H460): 87%; inhibition of growth at 10 µM (SF-295): 96%; inhibition of growth at 10 µM (SW-620): 69%; inhibition of growth at 10 µM (ACHN): 85%; inhibition of growth at 10 µM (SNB-75): 30%; inhibition of growth at 10 µM (NCI-H322M): 27%; inhibition of growth at 10 µM (SR): 60%; inhibition of growth at 10 µM (NCI-H522): 77%; inhibition of growth at 10 µM (MDA-MB-231): 43%; inhibition of growth at 10 µM (MDA-MB-435): 65%; inhibition of growth at 10 µM (T47D): 87%; inhibition of growth at 10 µM (Hs-578T): 9%; inhibition of growth at 10 µM (U-251): 73%; inhibition of growth at 10 µM (SK-MEL-28): 42%; inhibition of growth at 10 µM (DU-145): 71%; inhibition of growth at 10 µM (NCI-H23): 92%
O=C(Nc1ccc(NC2=NS(=O)(=O)c3ccccc32)cc1)Nc1cccc(Br)c1,45%,23%,-2%,-11%,1%,8%,24%,9%,16%,22%,-6%,1%,8%,17%,36%,23%,22%,21%,21%,19%,inhibition of growth at 10 µM (KM12): 88%; inhibition of growth at 10 µM (UACC-62): 19%; inhibition of growth at 10 µM (NCI-H460): 1%; inhibition of growth at 10 µM (SF-295): 20%; inhibition of growth at 10 µM (SW-620): -2%; inhibition of growth at 10 µM (ACHN): 3%; inhibition of growth at 10 µM (SNB-75): 15%; inhibition of growth at 10 µM (NCI-H322M): 29%; inhibition of growth at 10 µM (SR): 27%; inhibition of growth at 10 µM (NCI-H522): 14%; inhibition of growth at 10 µM (MDA-MB-231): 47%; inhibition of growth at 10 µM (MDA-MB-435): 11%; inhibition of growth at 10 µM (T47D): 60%; inhibition of growth at 10 µM (Hs-578T): 35%; inhibition of growth at 10 µM (U-251): 39%; inhibition of growth at 10 µM (SK-MEL-28): 5%; inhibition of growth at 10 µM (DU-145): 19%; inhibition of growth at 10 µM (NCI-H23): 14%
